Reference: US7323490B2, “Pyrrole compounds and uses thereof” (Ambit Biosciences Corporation, priority 2003, dated 2008)

Target: PDE6D (Homo sapiens, UniProt O43924)
Assay: phage-based competition binding screen at 2 μM
Design: made in house; host or cells: phage
Conditions: 2 μM competitor, duplicate
Description: Forty-four molecules were screened for PDE6D binding activity in a standard phage-based competition binding assay, as described in co-pending U.S. patent applications Ser. No. 10/115,442, filed 2 Apr. 2002, and Ser. No. 10/406,797 filed on 2 Apr. 2003 (or PCT International Application PCT/US03/10247 filed 2 Apr. 2003). All compounds were screened in duplicate (duplicate sets of bars) at a concentration of 2 μM.

Structure (SMILES): CC(C)c1[nH]c(-c2ccc(F)cc2)c(-c2ccccc2)c1C(=O)Nc1ccccc1 [Compound 781430]
- fraction of PDE6D-displaying phage bound to immobilized atorvastatin (screen outcome): candidate lead compounds
